In patent US5658885A, “Amidino and guanidino substituted boronic acid inhibitors of trypsin-like enzymes” (The DuPont Merck Pharmaceutical Company, priority 1994, dated 1997):

Key:
thrombin clotting times = experiment: Anticoagulant effect in vivo: identical model, activity measured by increases in thrombin clotting times; set-up: species or system conscious dogs or anesthetized rats; details: oral administration
human thrombin = target: T1, human thrombin (Homo sapiens, UniProt P00734); experiment: Inhibition of thrombin hydrolysis of chromogenic substrate S2238 (Ki); type: biochemical; details: S2238, pH 7.5
T1 construct: 0.2-0.5 nM human thrombin or human factor Xa; purchased Enzyme Research Laboratories, South Bend, Ind
In short: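 Purified human enzymes hydrolysing pNA substrates (thrombin S2238, factor Xa S2222, factor VIIa S2288), followed by absorbance at 405 nm over 30 min with velocities taken at 25-30 min. Thrombin and Xa were run in 0.10 M phosphate pH 7.5, 0.20 M NaCl, 0.5% PEG 8000. VIIa was run in 0.05 M Tris pH 7.6, 0.10 M NaCl, 4 mM CaCl2, 0.1% BSA, with Ki calculated from inhibited versus control velocities using substrate concentration and Km.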

chymotrypsin = chymotrypsin (Bos taurus, UniProt P00766); details: Matteson et al. J. Am. Chem. Soc. 103: 5241 (1981); cited from earlier work
human factor Xa = target: T2, human factor Xa (Homo sapiens, UniProt P00742); experiment: Inhibition of Factor Xa hydrolysis of chromogenic substrate S2222 (Ki); type: biochemical; details: S2222, pH 7.5
T2 construct: 0.2-0.5 nM human thrombin or human factor Xa; purchased Enzyme Research Laboratories, South Bend, Ind
Protocol: The effectiveness of compounds of the present invention as inhibitors of blood coagulation proteases was determined using purified human proteases and synthetic substrates following procedures similar to those described in Kettner et al. (1990).
For these assays, the rate of enzymatic (thrombin, Factor Xa, and Factor VIIa) hydrolysis of chromogenic substrates (S2238 (H-D-Phe-Pip-Arg-pNA), S2222, and S2288, respectively; Kabi Pharmacia, Franklin, Ohio) was measured both in the absence and presence of compounds of the present invention. […] A decrease in the rate of absorbance change at 405 nm in the presence of inhibitor is indicative of enzyme inhibition. The results of this assay are expressed as inhibitory constant, Ki.
Thrombin and Xa determinations were made in 0.10M sodium phosphate buffer, pH 7.5, containing 0.20M NaCl, and 0.5% PEG 8000. VIIa determinations were made in 0.05M tris buffer, pH 7.6, containing 0.10M NaCl, 4 mM CaCl2, and 0.1% bovine serum albumin.
Reactions were allowed to go for 30 minutes and the velocities (rate of absorbance change vs time) were measured in the time frame of 25-30 minutes. The following relationship was used to calculate Ki values. [formula] where: vo is the velocity of the control in the absence of inhibitor;
vs is the velocity in the presence of inhibitor;
I is the concentration of inhibitor;
Ki is the dissociation constant of the enzyme: inhibitor complex;
S is the concentration of substrate;
Km is the Michaelis constant.

T2 sequence (P00742 235-488 limits assumed): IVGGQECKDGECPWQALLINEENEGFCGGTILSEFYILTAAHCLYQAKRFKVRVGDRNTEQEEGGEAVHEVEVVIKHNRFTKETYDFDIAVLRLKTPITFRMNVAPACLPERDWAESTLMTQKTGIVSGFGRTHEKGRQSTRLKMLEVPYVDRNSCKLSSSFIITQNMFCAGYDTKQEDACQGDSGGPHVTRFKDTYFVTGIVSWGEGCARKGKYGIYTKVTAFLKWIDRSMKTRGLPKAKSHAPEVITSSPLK
T2 sequence (P00742 41-179 limits assumed): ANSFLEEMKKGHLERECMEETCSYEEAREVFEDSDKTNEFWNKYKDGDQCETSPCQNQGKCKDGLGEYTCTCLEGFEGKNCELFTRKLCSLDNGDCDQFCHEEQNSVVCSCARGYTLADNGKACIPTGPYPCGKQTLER

Ki (human thrombin) [nM]	Ki (human factor Xa) [nM]	Molecule	elevation in anticoagulant activity measured by increases in thrombin clotting times (thrombin clotting times) [fold]	Ki (chymotrypsin) [µM]
< 500	–	Ac--(D)Phe--Pro--boroArg(CH3)--OH.HCl [Example 54]	≥ 2	–
–	–	CC(=O)N[C@@H](Cc1ccccc1)B(O)O [Ac-boroPhe--OH, R-1-acetamido-2-phenylethane boronic acid]	–	4
< 500	< 500	Ms--(D)Thiazolylalanine-Pro--boroPhe(m-CN)--C10 H16 [Example 31]	≥ 2	–
